These results are taken from US11673865B2, “Cyclooctynes for click chemistry” (Massachusetts Institute of Technology, priority 2021, dated 2023).

Assay type in all cases: physicochemical
Data set [1] is described as follows: Cyclooctyne stability in the presence of glutathione. To be noted: 25 μM. The protocol:
The stability of ABC in the presence of biological nucleophiles was determined using a biomimetic concentration of glutathione, which contains amino, carboxyl, and sulfhydryl groups. DIBAC was used as a comparator.
A solution of compound 3 (25 μM) or DIBAC (25 μM) was prepared in phosphate-buffered saline containing reduced glutathione (1.0 mM), oxidized glutathione (0.2 mM), and DMSO (2% v/v). The solutions were incubated at 37° C. (FIG. 6), and HPLC analyses were carried out every hour to determine the remaining concentration of dipolarophile. Subsequently, plots of In(concentration) versus time were prepared to calculate values of kobs for the degradation. These values were divided by the concentration of reduced glutathione to obtain second-order rate constants for the degradation with respect to reduced glutathione.

Data set [2] in a line: 1,3-dipolar cycloaddition kinetics by HPLC. Conditions: with N-benzylazidoacetamide; CH2Cl2 (FIG. 1). As to the method:
(§1) The rates of reaction for the 1,3-dipolar cycloaddition of dipoles N-benzylazidoacetamide and N-benzyldiazoacetamide with compound 3 in both aprotic (CH2Cl2) and protic solvents (MeOH and PBS containing 2% v/v DMSO) were measured. The depletion of compound 3by using HPLC and second-order rate constants were calculated from the slope of a plot of [compound 3]^−1 versus time. As a benchmark, the rate of the reaction of DIBO with each dipole was also measured.
(§2) Kinetics General Method A. Stock solutions at the specified concentrations in the specified solvents were prepared for each dipole and dipolarophile. Aliquots (0.5 mL) of dipole and dipolarophile were mixed, and reactions were monitored by HPLC with aliquots injected at the timepoints shown in the kinetic traces below. Each reaction was carried out in triplicate. The concentration of remaining dipolarophile was obtained from its corresponding peak in the chromatogram monitored at 280 nm. Second-order rate constants were calculated from the slope of the plot of [dipolarophile]^−1 versus time.
Reaction of N-benzylazidoacetamide with DIBO in CH2Cl2. Kinetics General Method A was followed using stock solutions at 2 mM and resulting in final reaction concentrations of 1 mM N-benzylazidoacetamide and 1 mM DIBO.
Reaction of N-benzylazidoacetamide with compound 3 in CH2Cl2. […]

Data set [3] in a line: 1,3-dipolar cycloaddition kinetics by HPLC. As to the method:
as §1, §2
Reaction of N-benzyldiazoacetamide with DIBO in CH2Cl2. Kinetics General Method A was followed using stock solutions at 2 mM and resulting in final reaction concentrations of 1 mM N-benzyldiazoacetamide and 1 mM DIBO.
Reaction of N-benzyldiazoacetamide with compound 3 in CH2Cl2. […]

Data set [4] in a line: 1,3-dipolar cycloaddition kinetics by HPLC. Conditions: CH2Cl2 (FIG. 1). As to the method: To assess the effect of the putative hydrogen bond, the reactivity of compound 3 and DIBO with ethyl diazoacetate, which lacks a hydrogen bond donor, was tested. The rate constant for the reaction of compound 3 with ethyl diazoacetate was nearly 200-fold lower than that with N-benzylazidoacetamide. This decrease is substantially greater than the 4-fold decrease in rate constant for the reaction of these same dipoles with DIBO (FIG. 1).
as §2
Reaction of ethyl diazoacetate with compound 3 in CH2Cl2. Kinetics General Method A was followed using stock solutions at 400 μM and resulting in final reaction concentrations of 200 μM ethyl diazoacetate and 200 μM compound 3.

The nature of data set [5]: 1,3-dipolar cycloaddition kinetics by HPLC. Conditions: CH2Cl2, 26° C., triplicate. As to the method:
as §2
Reaction of 2-Azido-N-methyl-N-(phenylmethyl)acetamide with compound 3 in CH2Cl2. Kinetics General Method A was followed using stock solutions at 80 μM and resulting in final reaction concentrations of 40 μM 2-Azido-N-methyl-N-(phenylmethyl)acetamide and 40 μM compound 3.

Data set [6] can be described thus: 1,3-dipolar cycloaddition kinetics by HPLC. To be noted: CH2Cl2, 26° C., triplicate. The protocol: as §2
Reaction of compound 9 with compound 3 in CH2Cl2. Kinetics General Method A was followed using stock solutions at 80 μM and resulting in final reaction concentrations of 40 μM 2-Diazo-N-methyl-N-(phenylmethyl)acetamide and 40 μM compound 3.
This is another data set of the same source.

Take “dibenzoazacyclooctyne [DIBAC, reference compound]”: the “second-order rate constant of degradation with respect to reduced glutathione” value in data set [1] (1 mM reduced and 0.2 mM oxidized glutathione in PBS containing DMSO (2% v/v), 37° C., HPLC) is 0.05 M⁻¹ s⁻¹.
Consider `Clc1ccc2c(c1)CCc1cccnc1C#C2` [compound 3, 2-Azabenzo-8-chlorobenzocyclooctyne], for which the “rate increase relative to DIBO” value in data set [2] is 30 fold; in data set [3] (with N-benzyl diazoacetamide, CH2Cl2 (FIG. 1)), 1,200 fold. The “rate increase of N-benzyl diazoacetamide over N-benzyl azidoacetamide” value in data set [3] (diazoacetamide over azidoacetamide) is about 20 fold. For the same compound, the “decrease in rate constant with ethyl diazoacetate relative to N-benzylazidoacetamide” value in data set [4] is reported as about 200 fold. Moreover, the figures for the “second-order rate constant k” value in data set [5] and in data set [6] were 1.0 M⁻¹ s⁻¹ and 0.75 M⁻¹ s⁻¹, respectively. Further, in data set [1], the “second-order rate constant of degradation with respect to reduced glutathione” value turned out to be 0.10 M⁻¹ s⁻¹.
